Data taken from patent publication US20140350029A1 (DAINIPPON SUMITOMO PHARMA CO., LTD., priority 2011, published 2014).

Assays:
[1] = target: T1, Dopamine D3 receptor (Homo sapiens, UniProt P35462); experiment: In vitro receptor binding, dopamine D3; settings: cloned cells expressing human receptors; read-out: Binding Affinities (Ki; nM) Dopamine D3
T1 construct: expressed in transfected cells

[2] = target: T2, Dopamine D4 receptor (Homo sapiens, UniProt P21917); experiment: In vitro receptor binding, dopamine D4; settings: cloned cells expressing human receptors; read-out: Binding Affinities (Ki; nM) Dopamine D4
T2 sequence (P21917 1-419): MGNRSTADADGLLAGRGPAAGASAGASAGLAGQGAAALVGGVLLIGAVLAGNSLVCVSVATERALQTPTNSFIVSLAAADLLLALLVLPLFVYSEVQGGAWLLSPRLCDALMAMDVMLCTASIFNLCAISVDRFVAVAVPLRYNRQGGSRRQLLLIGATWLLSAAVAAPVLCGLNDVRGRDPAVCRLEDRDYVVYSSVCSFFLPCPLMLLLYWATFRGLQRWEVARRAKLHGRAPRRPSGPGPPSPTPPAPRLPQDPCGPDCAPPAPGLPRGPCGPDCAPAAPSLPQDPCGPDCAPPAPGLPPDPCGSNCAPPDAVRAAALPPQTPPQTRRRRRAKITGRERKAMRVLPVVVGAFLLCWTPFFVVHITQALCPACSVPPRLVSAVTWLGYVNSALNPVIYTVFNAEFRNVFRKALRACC
Description: Functional assays were carried out to analyze the binding affinity and effect on receptor function for dopamine D1-D4 receptor subtypes, serotonin 5-HT1A, 5-HT2A, 5-HT2C, 5-HT6, 5-HT7, norepinephrine α1, α2A, α2C, histamine H1 receptors, and muscarinic M1 receptors.

[3] = target: Norepinephrine α1 receptor; experiment: In vitro receptor binding, norepinephrine α1 (rat)
[4] = target: Histamine H1 receptor (Cavia porcellus, UniProt P31389); experiment: In vitro receptor binding, histamine H1 (guinea pig)
Sequence of Histamine H1 receptor (P31389 whole entry): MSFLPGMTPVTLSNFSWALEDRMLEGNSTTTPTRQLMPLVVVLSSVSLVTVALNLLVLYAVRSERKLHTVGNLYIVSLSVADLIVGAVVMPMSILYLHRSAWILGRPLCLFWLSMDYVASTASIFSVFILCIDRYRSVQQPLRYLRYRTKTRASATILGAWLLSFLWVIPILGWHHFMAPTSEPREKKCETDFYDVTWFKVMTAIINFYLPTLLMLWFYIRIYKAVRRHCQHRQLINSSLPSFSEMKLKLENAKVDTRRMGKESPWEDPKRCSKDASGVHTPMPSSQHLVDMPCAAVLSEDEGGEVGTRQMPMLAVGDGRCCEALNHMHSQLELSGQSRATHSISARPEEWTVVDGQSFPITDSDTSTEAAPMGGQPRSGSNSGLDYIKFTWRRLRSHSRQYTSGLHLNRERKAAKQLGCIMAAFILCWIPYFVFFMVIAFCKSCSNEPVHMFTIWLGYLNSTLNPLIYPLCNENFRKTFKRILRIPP

[5] = tested on: patients with bipolar I depression; experiment: Lurasidone monotherapy for bipolar I depression, 6-week study, efficacy; type: in vivo, human; settings: for MADRS effect size vs PBO / MADRS score reduction (change from baseline, MMRM) / reduction in CGI-BP-S depression scores (MMRM): week 6
Description: Changes from DB baseline (DB-BL) to week 6 in MADRS and CGI-bipolar severity (CGI-BP-S) depression scores, respectively, were analyzed using mixed model for repeated measures (MMRM). Additional secondary outcome measures, e.g., Sheehan Disability Scale (SDS), were analyzed using analysis of covariance, last observation carried forward (ANCOVA-LOCF), or logistic regression.

[6] = tested on: patients with bipolar I depression; experiment: Lurasidone adjunctive to lithium or divalproex for bipolar I depression, 6-week study, efficacy; type: in vivo, human; settings: lurasidone 20-120 mg/day adjunctive to lithium or divalproex, 6 weeks
Description: Changes from DB baseline (DB BL) in MADRS total score and secondary efficacy outcomes were analyzed using either mixed model for repeated measures (MMRM) or analysis of covariance, last observation carried forward (ANCOVA-LOCF), or logistic regression.
(§1) Therapeutic blood levels of Li or VPA had to be maintained for ≧28 days prior to randomization.
(§2) The total duration of treatment was 6 weeks.
A mixed model for repeated measures (MMRM) was utilized using the ITT population. The results are depicted in FIG. 16. The MMRM model included treatment, visit, pooled center, stratification variable (lithium or divalproex), baseline MADRS total score, and the treatment-by-visit interactions. An unstructured covariance matrix was used for the within-subject correlation. Missing observations were not imputed for this analysis.
Efficacy was also evaluated by measuring the change from baseline in CGI-BP-S score (depression) and the change from baseline in SDS total score. The results are depicted in FIGS. 17 and 18. CGI-BP-S was analyzed using the MMRM method described above, and SDS was analyzed using an analysis of covariance (ANCOVA) model with treatment, visit, pooled center, stratification variable (lithium or divalproex) and the baseline value of SDS. The ITT population was used for the analyses.

[7] = Lurasidone adjunctive to lithium or divalproex for bipolar I depression, 6-week study, safety and tolerability; type: in vivo, human; settings: adjunctive to Li/VPA
Description: as §1, §2
Patients were required to continue treatment with lithium or divalproex during the screening period and throughout the study. Dose adjustments of lithium or divalproex were permitted during the trial to ensure that trough serum levels remained within the protocol-specified range (0.6 mEq/L to 1.2 mEq/L for lithium or […] to 125 μg/mL for divalproex).
This study also evaluated the safety and tolerability of using lurasidone in combination with lithium or divalproex. Patients were evaluated for: (1) Adverse effects, discontinuation due to adverse effects (AEs), and serious adverse effects (SAEs), (2) Movement disorders as assessed by Abnormal Involuntary Movement Scale (AIMS), Barnes Akathisia Rating Scale (BARS), and the Simpson-Angus Scale (SAS), and (3) Weight, laboratory measures, vital signs, and electrocardiograms (ECGs).

[8] = target: dopamine D2 receptor (Homo sapiens, UniProt P14416); settings: background statement; cited from earlier work
Sequence of dopamine D2 receptor (P14416 whole entry): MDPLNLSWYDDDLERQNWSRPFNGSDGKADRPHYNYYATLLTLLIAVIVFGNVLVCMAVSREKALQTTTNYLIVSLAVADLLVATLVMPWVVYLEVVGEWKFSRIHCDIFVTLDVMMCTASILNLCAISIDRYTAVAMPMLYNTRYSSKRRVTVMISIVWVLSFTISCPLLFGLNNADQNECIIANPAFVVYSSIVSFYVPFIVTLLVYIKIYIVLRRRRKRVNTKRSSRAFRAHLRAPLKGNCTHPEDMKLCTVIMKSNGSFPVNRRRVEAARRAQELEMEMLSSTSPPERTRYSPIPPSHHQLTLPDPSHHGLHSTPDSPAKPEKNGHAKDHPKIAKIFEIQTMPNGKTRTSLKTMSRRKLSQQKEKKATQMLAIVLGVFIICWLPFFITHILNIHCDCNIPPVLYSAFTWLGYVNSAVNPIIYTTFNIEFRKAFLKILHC

[9] = target: T3, noradrenaline α2C receptor (Homo sapiens, UniProt P18825); settings: background statement; cited from earlier work
T3 sequence (P18825 1-462): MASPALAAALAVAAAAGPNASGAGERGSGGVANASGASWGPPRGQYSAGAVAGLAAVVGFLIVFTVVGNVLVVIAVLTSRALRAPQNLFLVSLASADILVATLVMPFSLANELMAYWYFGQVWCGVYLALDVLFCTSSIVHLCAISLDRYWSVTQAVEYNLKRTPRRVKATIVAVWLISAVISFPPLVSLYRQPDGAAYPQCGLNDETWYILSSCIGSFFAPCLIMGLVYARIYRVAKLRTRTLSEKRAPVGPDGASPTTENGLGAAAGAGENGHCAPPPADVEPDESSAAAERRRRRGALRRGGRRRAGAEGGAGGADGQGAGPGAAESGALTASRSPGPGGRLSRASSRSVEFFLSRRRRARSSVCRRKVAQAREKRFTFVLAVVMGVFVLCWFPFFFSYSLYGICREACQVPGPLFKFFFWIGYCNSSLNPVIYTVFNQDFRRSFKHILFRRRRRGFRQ

T1 sequence (P35462 whole entry): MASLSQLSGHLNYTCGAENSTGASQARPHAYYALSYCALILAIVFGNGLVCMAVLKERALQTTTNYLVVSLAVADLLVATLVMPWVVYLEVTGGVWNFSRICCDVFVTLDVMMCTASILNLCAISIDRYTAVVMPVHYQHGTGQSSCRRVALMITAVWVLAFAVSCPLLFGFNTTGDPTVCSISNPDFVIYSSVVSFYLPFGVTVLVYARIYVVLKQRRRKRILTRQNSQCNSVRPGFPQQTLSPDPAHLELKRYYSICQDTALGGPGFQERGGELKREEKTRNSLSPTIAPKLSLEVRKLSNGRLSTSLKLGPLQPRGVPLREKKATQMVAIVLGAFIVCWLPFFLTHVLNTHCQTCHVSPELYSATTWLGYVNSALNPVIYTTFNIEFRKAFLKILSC

SMILES: O=C1[C@@H]2[C@H]3CC[C@H](C3)[C@@H]2C(=O)N1C[C@@H]1CCCC[C@H]1CN1CCN(c2nsc3ccccc23)CC1 [Lurasidone]
- Ki [1]: 15.7 nM
- Ki [2]: 29.7 nM
- Ki ([3]; rat, read-out: Binding Affinities (Ki; nM) Norepinephrine α1): 47.9 nM
- binding affinity for α1 adrenoreceptor (in words) ([3]; summary of Table 2): low or negligible binding affinity
- Ki ([4]; guinea pig, read-out: Binding Affinities (Ki; nM) Histamine H1): > 1000 nM
- binding affinity for histamine H1 receptor (in words) ([4]; summary of Table 2): low or negligible binding affinity
- Sheehan Disability Scale (SDS) vs PBO ([5]; both LUR20-60 and LUR80-120 groups, LOCF): significant improvement over PBO
- Responder rates (reduction in MADRS total score ≧50%) ([5]; lurasidone 20 to 60 mg/day): 53%
- MADRS effect size vs PBO ([5]; lurasidone 20 to 60 mg/day): 0.51
- MADRS score reduction (change from baseline, MMRM) ([5]; lurasidone 20 to 60 mg/day): −15.4
- reduction in CGI-BP-S depression scores (MMRM) ([5]; lurasidone 20 to 60 mg/day): −1.8
- Responder rates (reduction in MADRS total score ≧50%) ([5]; lurasidone 80 to 120 mg/day): 51%
- MADRS effect size vs PBO ([5]; lurasidone 80 to 120 mg/day): 0.51
- MADRS score reduction (change from baseline, MMRM) ([5]; lurasidone 80 to 120 mg/day): −15.4
- reduction in CGI-BP-S depression scores (MMRM) ([5]; lurasidone 80 to 120 mg/day): −1.7
- depressive symptoms compared to placebo ([5]; monotherapy, flexibly dosed at 20 to 60 mg/day or 80 to 120 mg/day): significantly reduced depressive symptoms
- depressive symptoms compared to placebo [6]: significantly reduced depressive symptoms
- self-rated measures of social, family, and occupational function as well as quality of life [6]: significantly improved
- changes in weight, lipids, and measures of glucemic control [7]: Minimal changes
- discontinuation rates due to adverse events [7]: 6%
- most frequently reported adverse events [7]: nausea, headache, somnolence, and tremor
- reported affinity for dopamine D2 receptor [8]: high affinity
- reported affinity for noradrenaline α2C receptor [9]: high affinity
